Reference: patent publication US20240383872A1, “NOVEL PYRIDINE AND PYRAZINE COMPOUNDS AS INHIBITORS OF CANNABINOID RECEPTOR 2” (HOFFMANN-LA ROCHE INC., priority 2018, published 2024)

Molecular target: human CB2 receptor (CNR2) (Homo sapiens (Human), UniProt P34972)
Test: Radioligand binding assay, human CB2
Conditions: HEK cell membranes expressing human CNR2, [3H]-CP-55,940 radioligand
Protocol: The affinity of the compounds of the invention for cannabinoid CB1 receptors was determined using recommended amounts of membrane preparations (PerkinElmer) of human embryonic kidney (HEK) cells expressing the human CNRI or CNR2 receptors in conjunction with 1.5 or 2.6 nM [3H]-CP-55,940 (Perkin Elmer) as radioligand, respectively. Binding was performed in binding buffer (50 mM Tris, 5 mM MgCl2, 2.5 mM EDTA, and 0.5% (wt/vol) fatty acid free BSA, pH 7.4 for CB1 receptor and 50 mM Tris, 5 mM MgCl2, 2.5 mM EGTA, and 0.1% (wt/vol) fatty acid free BSA, pH 7.4 for CB2 receptor) in a total volume of 0.2 ml for 1 h at 30° C. shaking. The reaction was terminated by rapid filtration through microfiltration plates coated with 0.5% polyethylenimine (UniFilter GF/B filter plate; Packard). Bound radioactivity was analyzed for Ki using nonlinear regression analysis (Activity Base, ID Business Solution, Limited), with the Kd values for [3H]CP55,940 determined from saturation experiments. The compounds of formula (I) show an excellent affinity for the CB2 receptor.
The compounds according to formula (I) have an activity in the above assay (Ki) between 0.5 nM and 10 μM. Particular compounds of formula (I) have an activity in the above assay (Ki) between 0.5 nM and 3 μM. Other particular compounds of formula (I) have an activity in the above assay (Ki) between 0.5 nM and 100 nM.

human CB2 receptor (CNR2), sequence (P34972 whole entry): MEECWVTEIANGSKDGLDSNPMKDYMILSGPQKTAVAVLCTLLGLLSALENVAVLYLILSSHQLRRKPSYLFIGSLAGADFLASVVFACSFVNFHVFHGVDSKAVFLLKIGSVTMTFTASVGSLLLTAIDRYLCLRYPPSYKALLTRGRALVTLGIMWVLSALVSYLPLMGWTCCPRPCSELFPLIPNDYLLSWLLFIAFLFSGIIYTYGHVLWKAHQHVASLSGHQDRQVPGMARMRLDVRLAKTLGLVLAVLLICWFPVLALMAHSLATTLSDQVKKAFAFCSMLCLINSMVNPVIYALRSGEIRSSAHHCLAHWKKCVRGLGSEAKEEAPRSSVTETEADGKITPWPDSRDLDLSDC

With `CCC(CC)(NC(=O)c1ccc(N2CC(OC)C2)c(OCC2CC2)n1)C(=O)OCCCF` [Example 3, 3-Fluoropropyl 2-{[6-(cyclopropylmethoxy)-5-(3-methoxyazetidin-1-yl)pyridine-2-carbonyl]amino}-2-ethylbutanoate] the Ki was 6 nM.

`COC1CN(c2ccc(C(=O)N[C@@H](C)COCCF)nc2OCC2CC2)C1` [Example 32, 6-(Cyclopropylmethoxy)-N-[(2S)-1-(2-fluoroethoxy)propan-2-yl]-5-(3-methoxyazetidin-1-yl)pyridine-2-carboxamide] gave a Ki of 3120 nM.

In the case of `CCC(CC)(NC(=O)c1ccc(N2CC(F)(F)C2)c(OCC2CC2)n1)C(=O)OCF` [Example 4, Fluoromethyl 2-{[6-(cyclopropylmethoxy)-5-(3,3-difluoroazetidin-1-yl)pyridine-2-carbonyl]amino}-2-ethylbutanoate], the Ki is reported as 6 nM.

Work on `C[C@@H](COCF)NC(=O)c1ccc(N2CCCC2)c(OCC2CC2)n1` [Example 22, 6-(Cyclopropylmethoxy)-N-[(2S)-1-(fluoromethoxy)propan-2-yl]-5-(pyrrolidin-1-yl)pyridine-2-carboxamide] yielded a Ki of 787 nM.

With `C[C@@H](COCCCF)NC(=O)c1ccc(N2CCCC2)c(OCC2CC2)n1` [Example 24, 6-(Cyclopropylmethoxy)-N-[(2S)-1-(3-fluoropropoxy)propan-2-yl]-5-(pyrrolidin-1-yl)pyridine-2-carboxamide] the Ki was 671 nM.

For `CCC(CC)(NC(=O)c1ccc(N2CC(OC)C2)c(OCC2CC2)n1)C(=O)OCF` [Example 1, Fluoromethyl 2-{[6-(cyclopropylmethoxy)-5-(3-methoxyazetidin-1-yl)pyridine-2-carbonyl]amino}-2-ethylbutanoate], the Ki was 2 nM.
